Results: patent US9976141B2, “Compositions and methods for inhibiting gene expression of Hif2alpha” (Arrowhead Madison Inc., priority 2015, dated 2018)

Test system: human (tumor) Hif2α (EPAS1) mRNA
Test: Hif2α knockdown in orthotopic RCC tumor bearing mice, single injection of RNAi trigger-delivery polymer conjugate, RT-qPCR (Table 7)
Format: in vivo
Settings: RNAi trigger 80 μg, polymer 126 400 μg; single tail vein injection; relative to isotonic glucose
Experimental: A pCR3.1 expression vector expressing the reporter gene secreted alkaline phosphatase (SEAP) under the CMV promoter was prepared by directional cloning of the SEAP coding sequence PCR amplified from Clontech's pSEAP2-basic vector. Convenient restriction sites were added onto primers used to amplify the SEAP coding sequence for cloning into the pCR3.1 vector (Invitrogen). The resultant construct pCR3-SEAP was used to create a SEAP-expressing A498 ccRCC cell line. Briefly, pCR3-SEAP plasmid was transfected into A498 ccRCC cells by electroporation following manufacturer's recommendation. Stable transfectants were selected by G418 resistance. Selected A498-SEAP clones were evaluated for SEAP expression and integration stability.
Female athymic nude mice were anesthetized with ˜3% isoflourane and placed in the right lateral decubitus position. A small, 0.5-1 cm, longitudinally abdominal incision in the left flank was made. Using a moist cotton swab, the left kidney was lifted out of the peritoneum and gently stabilized. Just before injection, a 1.0 ml syringe was filled with the cell/Matrigel mixture and a 27 gauge needle catheter was attached to the syringe tip. The filled syringe was then attached to a syringe pump (Harvard Apparatus, model PHD2000) and primed to remove air. The tip of a 27-gauge needle catheter attached to a syringe was inserted just below the renal capsule near the caudal pole and the tip of the needle was then carefully advanced cranially along the capsule 3-4 mm. A 10 μl aliquot of 2:1 (vol:vol) cell/matrigel mixture containing about 300,000 cells was slowly injected into the kidney parenchyma using a syringe pump. The needle was left in the kidney for 15-20 seconds to ensure the injection was complete. The needle was then removed from the kidney and a cotton swab was placed over the injection site for 30 seconds to prevent leakage of the cells or bleeding. The kidney was then gently placed back into the abdomen and the abdominal wall was closed. Serum was collected every 7-14 days after implantation to monitor tumor growth using a commercial SEAP assay kit. For most studies, tumor mice were used 5-6 weeks after implantation, when tumor measurements were typically around 4-8 mm.
RGD targeted HiF2α-RNAi trigger delivery conjugates. Delivery polymers were modified using RGD-PEG-HyNic, RGD-PEG-ACit-PNP, or RDG-PEG-FCitFP-TFP and PEG-dipeptide modifying agents. The indicated amount of polymer 126 or 100A polymer was modified with 8×PEG12-ACit-PABC-PNP/0.5× aldehyde-PEG24-FCit-PABC-PNP (with RGD mimic #1-PEG-HyNic using protocol #1) and the indicated amount of the indicated Hif2α RNAi trigger. Polymer 064 was modified according to protocol 7. Kidney RCC tumor-bearing mice were generated as described and treated with a single tail vein injection of isotonic glucose (G1) or the indicated Hif2α RNAi trigger-delivery polymer conjugate. Mice were euthanized at the indicated time after injection and total RNA was prepared from kidney tumor using Trizol reagent following manufacturer's recommendation. Relative HiF2α mRNA levels were determined by RT-qPCR as described below and compared to mice treated with delivery buffer (isotonic glucose) only.
In preparation for quantitative PCR, total RNA was isolated from tissue samples homogenized in TriReagent (Molecular Research Center, Cincinnati, Ohio) following the manufacturer's protocol. Approximately 500 ng RNA was reverse-transcribed using the High Capacity cDNA Reverse Transcription Kit (Life Technologies). For human (tumor) Hif2α (EPAS1) expression, pre-manufactured TaqMan gene expression assays for human Hif2α (Catalog #4331182) and CycA (PPIA) Catalog #: 4326316E) were used in biplex reactions in triplicate using TaqMan Gene Expression Master Mix (Life Technologies) or VeriQuest Probe Master Mix (Affymetrix). […]

Substance	Relative Expression day 4 (Hif2α mRNA in kidney tumor)
AD01027 (antisense TAAAUCGUUACGUUGACAGTT; sense CUGUCAACGUAACGAUUUAT; Hif2alpha RNAi agent antisense strand; modified_base 2,4,6,8,10,12,14,16,18 /mod_base = “2′-deoxy-2′-fluoro corresponding nucleoside”; modified_base 3,5,9,11,13,15,17,19 /mod_base = “2′-O-methyl corresponding nucleoside”; modified_base 7 /mod_base = “2′-3′ seco corresponding nucleotide”; modified_base 21 /mod_base = “5′-phosphorothioate corresponding nucleotide”; Hif2alpha RNAi agent sense strand; modified_base 1,3,5,7,9,11,13,15,17,19 /mod_base = “2′-deoxy-2′-fluoro corresponding nucleoside”; modified_base 2,4,6,8,10,12,14,16,18 /mod_base = “2′-O-methyl corresponding nucleoside”; modified_b)	0.92
AD01028 (antisense TAAAUCGUUACGUUGACAGTT; sense CUGUCAACGUAACGAUUUAT; Hif2alpha RNAi agent antisense strand; modified_base 2,4,6,8,10,12,14,16,18 /mod_base = “2′-deoxy-2′-fluoro corresponding nucleoside”; modified_base 3,5,7,9,11,13,15,17,19 /mod_base = “2′-O-methyl corresponding nucleoside”; modified_base 21 /mod_base = “5′-phosphorothioate corresponding nucleotide”; Hif2alpha RNAi agent sense strand; modified_base 1,3,5,7,9,11,13,15,17,19 /mod_base = “2′-deoxy-2′-fluoro corresponding nucleoside”; modified_base 2,4,6,8,10,12,14,16,18 /mod_base = “2′-O-methyl corresponding nucleoside”; modified_base 20 /mod_base = “3′-3′-linked nucleotide”; modified_base 1 /mo)	0.39
AD01029 (antisense TUUCAUGAAAUCGUUACGUTT; sense ACGUAACGAUUUCAUGAAAT; Hif2alpha RNAi agent antisense strand; modified_base 2,4,8,10,12,14,16,18 /mod_base = “2′-deoxy-2′-fluoro corresponding nucleoside”; modified_base 3,5,7,9,11,13,15,17,19 /mod_base = “2′-O-methyl corresponding nucleoside”; modified_base 6 /mod_base = “2′-3′ seco corresponding nucleotide”; modified_base 21 /mod_base = “5′-phosphorothioate corresponding nucleotide”; Hif2alpha RNAi agent sense strand; modified_base 1,3,5,7,9,11,13,15,17,19 /mod_base = “2′-deoxy-2′-fluoro corresponding nucleoside”; modified_base 2,4,6,8,10,12,14,16,18 /mod_base = “2′-O-methyl corresponding nucleoside”; modified_b)	0.94
AD01030 (antisense TUUCAUGAAAUCGUUACGUTT; sense ACGUAACGAUUUCAUGAAAT; Hif2alpha RNAi agent antisense strand; modified_base 2,4,6,8,10,12,14,16,18 /mod_base = “2′-deoxy-2′-fluoro corresponding nucleoside”; modified_base 3,5,9,11,13,15,17,19 /mod_base = “2′-O-methyl corresponding nucleoside”; modified_base 7 /mod_base = “2′-3′ seco corresponding nucleotide”; modified_base 21 /mod_base = “5′-phosphorothioate corresponding nucleotide”; Hif2alpha RNAi agent sense strand; modified_base 1,3,5,7,9,11,13,15,17,19 /mod_base = “2′-deoxy-2′-fluoro corresponding nucleoside”; modified_base 2,4,6,8,10,12,14,16,18 /mod_base = “2′-O-methyl corresponding nucleoside”; modified_b)	0.47
AD01032 (antisense TAAGUUAAGCUCCCAUACATT; sense UGUAUGGGAGCUUAACUUAT; Hif2alpha RNAi agent antisense strand; modified_base 2,4,8,10,12,14,16,18 /mod_base = “2′-deoxy-2′-fluoro corresponding nucleoside”; modified_base 3,5,7,9,11,13,15,17,19 /mod_base = “2′-O-methyl corresponding nucleoside”; modified_base 6 /mod_base = “2′-3′ seco corresponding nucleotide”; modified_base 21 /mod_base = “5′-phosphorothioate corresponding nucleotide”; Hif2alpha RNAi agent sense strand; modified_base 1,3,5,7,9,11,13,15,17,19 /mod_base = “2′-deoxy-2′-fluoro corresponding nucleoside”; modified_base 2,4,6,8,10,12,14,16,18 /mod_base = “2′-O-methyl corresponding nucleoside”; modified_b)	1.00
AD01033 (antisense TAAGUUAAGCUCCCAUACATT; sense UGUAUGGGAGCUUAACUUAT; Hif2alpha RNAi agent antisense strand; modified_base 2,4,6,8,10,12,14,16,18 /mod_base = “2′-deoxy-2′-fluoro corresponding nucleoside”; modified_base 3,5,9,11,13,15,17,19 /mod_base = “2′-O-methyl corresponding nucleoside”; modified_base 7 /mod_base = “2′-3′ seco corresponding nucleotide”; modified_base 21 /mod_base = “5′-phosphorothioate corresponding nucleotide”; Hif2alpha RNAi agent sense strand; modified_base 1,3,5,7,9,11,13,15,17,19 /mod_base = “2′-deoxy-2′-fluoro corresponding nucleoside”; modified_base 2,4,6,8,10,12,14,16,18 /mod_base = “2′-O-methyl corresponding nucleoside”; modified_b)	1.08
AD01034 (antisense TAAGUUAAGCUCCCAUACATT; sense UGUAUGGGAGCUUAACUUAT; Hif2alpha RNAi agent antisense strand; modified_base 2,4,6,8,10,12,14,16,18 /mod_base = “2′-deoxy-2′-fluoro corresponding nucleoside”; modified_base 3,5,7,9,11,13,15,17,19 /mod_base = “2′-O-methyl corresponding nucleoside”; modified_base 21 /mod_base = “5′-phosphorothioate corresponding nucleotide”; Hif2alpha RNAi agent sense strand; modified_base 1,3,5,7,9,11,13,15,17,19 /mod_base = “2′-deoxy-2′-fluoro corresponding nucleoside”; modified_base 2,4,6,8,10,12,14,16,18 /mod_base = “2′-O-methyl corresponding nucleoside”; modified_base 20 /mod_base = “3′-3′-linked nucleotide”; modified_base 1 /mo)	0.35
